In ChEMBL document CHEMBL2321673, “Critical role of a methyl group on the γ-lactone ring of annonaceous acetogenins in the potent inhibition of mitochondrial complex I” (Bioorg Med Chem Lett, 2013):
pIC50: −log10 of the molar value.

Molecular target: NADH-ubiquinone oxidoreductase chain 1 (Bos taurus, UniProt P03887)
Assay: Inhibition of bovine heart mitochondrial complex 1

Chain of NADH-ubiquinone oxidoreductase chain 1 (P03887 whole entry): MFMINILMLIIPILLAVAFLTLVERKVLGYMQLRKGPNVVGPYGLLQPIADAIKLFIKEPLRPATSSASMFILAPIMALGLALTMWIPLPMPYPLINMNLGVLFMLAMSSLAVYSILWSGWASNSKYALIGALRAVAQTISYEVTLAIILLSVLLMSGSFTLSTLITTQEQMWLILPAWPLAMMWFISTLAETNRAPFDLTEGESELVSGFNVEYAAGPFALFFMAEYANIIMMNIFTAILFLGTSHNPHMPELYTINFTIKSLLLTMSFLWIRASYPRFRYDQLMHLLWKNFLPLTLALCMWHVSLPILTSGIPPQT

Structure (SMILES)	pIC50
CCCCCCCCCCCC[C@@H](O)[C@H]1CC[C@H]([C@H](O)CCCCCCCCCCCCC2=C[C@H](CF)OC2=O)O1	8.54
CCCCCCCCCCCC[C@@H](O)[C@H]1CC[C@H]([C@H](O)CCCCCCCCCCCCC2=C[C@H](C(F)F)OC2=O)O1	7.51
CCCCCCCCCCCC[C@@H](O)[C@H]1CC[C@H]([C@H](O)CCCCCCCCCCCCC2=C[C@H](C(F)(F)F)OC2=O)O1	6.51
CCCCCCCCCCCC[C@@H](O)[C@H]1CC[C@H]([C@H](O)CCCCCCCCCCCCC2=C[C@@H](C)OC2=O)O1	6.57
CCCCCCCCCCCC[C@@H](O)[C@H]1CC[C@H]([C@H](O)CCCCCCCCCCCCC2=C[C@@H](C(F)(F)F)OC2=O)O1	6.24
CCCCCCCCCCCC[C@@H](O)[C@H]1CC[C@H]([C@H](O)CCCCCCCCCCCCC2=C[C@H](C)OC2=O)O1 [REL-SOLAMIN]	8.68
